These results are taken from patent publication US20060211698A1, “Bicyclic heteroaryl derivatives for treating viruses” (Genelabs, Inc., priority 2005, published 2006).

Each structure is given as a SMILES string.

The term inhibition denotes how much of the control response was suppressed. Lower therefore signals a response near the control.

For the experiment, the target named is T1, HCV-NS5b (Hepatitis C virus genotype 1b, UniProt Q9WMX2).
T1 construct: The cloned fragment was missing the C terminus 21 amino acid residues; (His)6 (C); made in house; host or cells: XL-1 cells (E. coli)
Description: HCV-NS5b Enzyme Assay. Format: biochemical. Conditions: 1 μM test compound; incorporation of [3H]-UTP, 37° C., 2 hours. The text has this: The coding sequence of NS5b protein was cloned by PCR from pFKI389luc/NS3-3′/ET as described by Lohmann, V., et al. (1999) Science 285, 110-113 using the following primers: • […] (SEQ. ID. NO. 1) • […] (SEQ. ID. NO. 2)
The cloned fragment was missing the C terminus 21 amino acid residues. The cloned fragment is inserted into an IPTG-inducible expression plasmid that provides an epitope tag (His)6 at the carboxy terminus of the protein.
The recombinant enzyme was expressed in XL-1 cells and after induction of expression, the protein was purified using affinity chromatography on a nickel-NTA column. Storage condition is 10 mM Tris-HCl pH 7.5, 50 mM NaCl, 0.1 mM EDTA, 1 mM DTT, 20% glycerol at −20° C.
The polymerase activity was assayed by measuring incorporation of radiolabeled UTP into a RNA product using a biotinylated, heteropolymeric template, which includes a portion of the HCV genome. Typically, the assay mixture […] contains 10 mM Tris-HCl (pH 7.5), 5 mM MgCl2, 0.2 mM EDTA, 10 mM KCl, 1 unit/μL RNAsin. 1 mM DTT, 10 μM each of NTP, including [^3H]-UTP, and 10 ng/μL biotinylated heteropolymeric template. 20× test compound in 2 μl's was then added as a 100% DMSO solution to achieve a final DMSO concentration of 5%. For IC50 determination a 10-point dose response was used. The compounds were serial diluted 2-fold […]. Typically for IC50's, compounds were tested starting at 50 uM or 2 μm depending on the potency. Reactions were started with addition of 10×NS5B in 4 μl's and allowed to incubate at 37° C. for 2 hours. Reactions were quenched with 8 μL of 100 mM EDTA and reaction mixtures (30 μL) were transferred to streptavidin-coated scintillation proximity microtiter plates (FlashPlates) and incubated at 4° C. overnight. Incorporation of radioactivity was determined by scintillation counting (cpm). The % Inhibition at a particular concentration was determined using the following equation, % Inhibition=100−[100*(cpm with inhibitor−bg)/(cpm with no inhibitor−bg)] where bg was the background with no enzyme.
For the compound `O=C(O)c1ccc2c(C3CCCCC3)c(-c3ccc4nc(-c5cccs5)ccc4c3)n(CC(=O)N3CCOCC3)c2c1` [Compound 224, 1-[N-morpholinocarbonylmethyl]-2-[2-thien-2-ylquinolin-6-yl]-3-cyclohexyl-1H-indole-6-carboxylic acid], the “% inhibition @ 1 μM” value stood at 98.2%.
Take `O=C(O)c1ccc2c(C3CCCCC3)c(-c3ccc4nc(-c5ccc(Cl)s5)ccc4c3)n(CC(=O)N3CCOCC3)c2c1` [Compound 225, 1-[N-morpholinocarbonylmethyl]-2-[2-(5-chlorothien-2-yl)quinolin-6-yl]-3-cyclohexyl-1H-indole-6-carboxylic acid]: the “% inhibition @ 1 μM” value was determined as 98.0%.
On the same count and under the same terms, with `O=C(O)c1ccc2c(C3CCCCC3)c(-c3ccc4nc(-c5cccnc5)ccc4c3)n(CC(=O)N3CCOCC3)c2c1` [Compound 226, 1-[N-morpholinocarbonylmethyl]-2-[2-pyrid-3-ylquinolin-6-yl]-3-cyclohexyl-1H-indole-6-carboxylic acid] the figure was 94.5%; with `O=C(O)c1ccc2c(C3CCCCC3)c(-c3ccc4nc(-c5nccs5)ccc4c3)n(CC(=O)N3CCOCC3)c2c1` [Compound 227, 1-[N-morpholinocarbonylmethyl]-2-[2-thiazol-2-ylquinolin-6-yl]-3-cyclohexyl-1H-indole-6-carboxylic acid], 98.4%.
Same read-out and setting: with `O=C(O)c1ccc2c(C3CCCCC3)c(-c3ccc4nc(-c5ccsc5)ccc4c3)n(CC(=O)N3CCOCC3)c2c1` [Compound 228, 1-[N-morpholinocarbonylmethyl]-2-[2-thien-3-ylquinolin-6-yl]-3-cyclohexyl-1H-indole-6-carboxylic acid] the figure was 96.2%.
As to `Cc1ccsc1-c1ccc2cc(-c3c(C4CCCCC4)c4ccc(C(=O)O)cc4n3CC(=O)N3CCOCC3)ccc2n1` [Compound 229, 3-Cyclohexyl-2-[2-(3-methyl-thiophen-2-yl)-quinolin-6-yl]-1-(2-morpholin-4-yl-2-oxo-ethyl)-1H-indole-6-carboxylic acid], the inhibition at 1 µM is 96.5%.
Still for that read-out and setting: then `Cc1cc(-c2ccc3cc(-c4c(C5CCCCC5)c5ccc(C(=O)O)cc5n4CC(=O)N4CCOCC4)ccc3n2)c(C)o1` [Compound 230, 3-Cyclohexyl-2-[2-(2,5-dimethyl-furan-3-yl)-quinolin-6-yl]-1-(2-morpholin-4-yl-2-oxo-ethyl)-1H-indole-6-carboxylic acid], with 92.2%.
In turn, `Cc1cccc(-c2ccc3cc(-c4c(C5CCCCC5)c5ccc(C(=O)O)cc5n4CC(=O)N4CCOCC4)ccc3n2)c1` [Compound 231, 3-Cyclohexyl-1-(2-morpholin-4-yl-2-oxo-ethyl)-2-(2-m-tolyl-quinolin-6-yl)-1H-indole-6-carboxylic acid] registered an inhibition at 1 µM of 98.7%.
Still for that read-out and setting: with `Cc1ccccc1-c1ccc2cc(-c3c(C4CCCCC4)c4ccc(C(=O)O)cc4n3CC(=O)N3CCOCC3)ccc2n1` [Compound 232, 3-Cyclohexyl-1-(2-morpholin-4-yl-2-oxo-ethyl)-2-(2-o-tolyl-quinolin-6-yl)-1H-indole-6-carboxylic acid] the figure was 97.5%; with `COc1ccccc1-c1ccc2cc(-c3c(C4CCCCC4)c4ccc(C(=O)O)cc4n3CC(=O)N3CCOCC3)ccc2n1` [Compound 233, 3-Cyclohexyl-2-[2-(2-methoxy-phenyl)-quinolin-6-yl]-1-(2-morpholin-4-yl-2-oxo-ethyl)-1H-indole-6-carboxylic acid], 95.7%.
Same read-out and setting: then `Cc1csc(-c2ccc3cc(-c4c(C5CCCCC5)c5ccc(C(=O)O)cc5n4CC(=O)N4CCOCC4)ccc3n2)c1` [Compound 234, 3-Cyclohexyl-2-[2-(4-methyl-thiophen-2-yl)-quinolin-6-yl]-1-(2-morpholin-4-yl-2-oxo-ethyl)-1H-indole-6-carboxylic acid], with 97.4%.
On the same count and under the same terms, then `Cc1ccc(-c2ccc3cc(-c4c(C5CCCCC5)c5ccc(C(=O)O)cc5n4CC(=O)N4CCOCC4)ccc3n2)s1` [Compound 235, 3-Cyclohexyl-2-[2-(5-methyl-thiophen-2-yl)-quinolin-6-yl]-1-(2-morpholin-4-yl-2-oxo-ethyl)-1H-indole-6-carboxylic acid], with 95.5%; and `Cc1nc(C)c(-c2ccc3cc(-c4c(C5CCCCC5)c5ccc(C(=O)O)cc5n4CC(=O)N4CCC(O)CC4)ccc3n2)s1` [Compound 236, 3-Cyclohexyl-2-[2-(2,4-dimethyl-thiazol-5-yl)-quinolin-6-yl]-1-[2-(4-hydroxy-piperidin-1-yl)-2-oxo-ethyl]-1H-indole-6-carboxylic acid], with 92.5%; and `Cc1nc(C)c(-c2ccc3cc(-c4c(C5CCCCC5)c5ccc(C(=O)O)cc5n4CC(=O)NCCN4CCOCC4)ccc3n2)s1` [Compound 237, 3-Cyclohexyl-2-[2-(2,4-dimethyl-thiazol-5-yl)-quinolin-6-yl]-1-[(2-morpholin-4-yl-ethylcarbamoyl)-methyl]-1H-indole-6-carboxylic acid], with 94.7%.
`Cc1nc(C)c(-c2ccc3cc(-c4c(C5CCCCC5)c5ccc(C(=O)O)c(C)c5n4CC(=O)N4CCOCC4)ccc3n2)s1` [Compound 238, 3-Cyclohexyl-2-[2-(2,4-dimethyl-thiazol-5-yl)-quinolin-6-yl]-7-methyl-1-(2-oxo-2-morpholino-4-yl-ethyl)-1H-indole-6-carboxylic acid] displayed an inhibition at 1 µM of 85.6%.
Same read-out and setting: then `Cc1nc(C)c(-c2ccc3cc(-c4c(C5CCCCC5)c5ccc(C(=O)O)cc5n4CC(=O)Nc4nn[nH]n4)ccc3n2)s1` [Compound 239, 3-Cyclohexyl-2-[2-(2,4-dimethyl-thiazol-5-yl)-quinolin-6-yl]-1-[(2H-tetrazol-5-ylcarbamoyl)-methyl]-1H-indole-6-carboxylic acid], with 96.9%.
Still for that read-out and setting: then `Cc1nc(C)c(-c2ccc3cc(-c4c(C5CCCCC5)c5ccc(C(=O)NS(C)(=O)=O)cc5n4CC(=O)N4CCOCC4)ccc3n2)s1` [Compound 240, N-[3-Cyclohexyl-2-[2-(2,4-dimethyl-thiazol-5-yl)-quinolin-6-yl]-1-(2-morpholin-4-yl-2-oxo-ethyl)-1H-indole-6-carbonyl]-methanesulfonamide], with 97.7%.
The same measure, in the same setting: then `Cc1nc(C)c(-c2ccc3cc(-c4c(C5CCCCC5)c5ccc(C(=O)O)cc5n4CC(=O)N4CCC(C(=O)O)CC4)ccc3n2)s1` [Compound 241, 1-[2-(4-Carboxy-piperidin-1-yl)-2-oxo-ethyl]-3-cyclohexyl-2-[2-(2,4-dimethyl-thiazol-5-yl)-quinolin-6-yl]-1H-indole-6-carboxylic acid], with 94.1%; and `Cc1nc(C)c(-c2ccc3cc(-c4c(C5CCCCC5)c5ccc(C(=O)NCCC#N)cc5n4CC(=O)N4CCOCC4)ccc3n2)s1` [Compound 242, 3-Cyclohexyl-2-[2-(2,4-dimethyl-thiazol-5-yl)-quinolin-6-yl]-1-(2-morpholin-4-yl-2-oxo-ethyl)-1H-indole-6-carboxylic acid (2-cyano-ethyl)-amide], with 63.6%; and `Cc1nc(C)c(-c2ccc3cc(-c4c(C5CCCCC5)c5ccc(C#N)cc5n4CC(=O)N4CCOCC4)ccc3n2)s1` [Compound 243, 3-Cyclohexyl-2-[2-(2,4-dimethyl-thiazol-5-yl)-quinolin-6-yl]-1-(2-morpholin-4-yl-2-oxo-ethyl)-1H-indole-6-carbonitrile], with 37.8%.
The compound `Cc1nc(C)c(-c2ccc3cc(-c4c(C5CCCCC5)c5ccc(-c6nnn[nH]6)cc5n4CC(=O)N4CCOCC4)ccc3n2)s1` [Compound 244, 2-[3-Cyclohexyl-2-[2-(2,4-dimethyl-thiazol-5-yl)-quinolin-6-yl]-6-(1H-tetrazol-5-yl)-indol-1-yl]-1-morpholin-4-yl-ethanone] displayed an inhibition at 1 µM of 97.2%.
Regarding `Cc1nc(C)c(-c2ccc3cc(-c4c(C5CCCCC5)c5ccc(C(=O)NCCc6nnn[nH]6)cc5n4CC(=O)N4CCOCC4)ccc3n2)s1` [Compound 245, 3-Cyclohexyl-2-[2-(2,4-dimethyl-thiazol-5-yl)-quinolin-6-yl]-1-(2-morpholin-4-yl-2-oxo-ethyl)-1H-indole-6-carboxylic acid [2-(1H-tetrazol-5-yl)-ethyl]-amide], 1 µM produced 91.3% inhibition.
Still for that read-out and setting: then `O=C(O)c1ccc2c(C3CCCCC3)c(-c3ccc4nc(-c5cccc(OC(F)(F)F)c5)ccc4c3)n(CC(=O)N3CCOCC3)c2c1` [Compound 246, 3-Cyclohexyl-1-(2-morpholin-4-yl-2-oxo-ethyl)-2-[2-(3-trifluoromethoxy-phenyl)-quinolin-6-yl]-1H-indole-6-carboxylic acid], with 96.9%.
